Measured values published in ChEMBL document CHEMBL1201862, “PubChem BioAssay data set” (2004).
Active and inactive are the calls of the source.

What was measured:
[1] = biological target: T1, RNA-binding protein pos-1 (Caenorhabditis elegans, UniProt G5EF15); experiment: inhibitors of POS-1/mex-3 RNA binding, dose response, biochemical, fluorescence polarization (AID 1964);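 further: purified POS-1 fused to maltose binding protein made in E. coli; potency of compounds blocking POS-1 binding to fluorescent RNA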
T1 sequence (G5EF15 whole entry): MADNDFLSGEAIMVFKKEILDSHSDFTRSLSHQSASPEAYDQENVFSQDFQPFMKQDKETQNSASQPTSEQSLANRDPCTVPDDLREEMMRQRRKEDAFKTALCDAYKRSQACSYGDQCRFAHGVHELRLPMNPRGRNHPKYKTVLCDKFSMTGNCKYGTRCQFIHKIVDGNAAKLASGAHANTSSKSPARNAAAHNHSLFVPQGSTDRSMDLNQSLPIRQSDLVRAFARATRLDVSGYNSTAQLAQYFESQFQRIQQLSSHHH

[2] = biological target: T2, Zinc finger protein mex-5 (Caenorhabditis elegans, UniProt Q9XUB2); experiment: MEX-5/TCR-2 RNA interaction inhibitors, dose response, biochemical, C. elegans, fluorescence polarization (AID 1960)
T2 sequence (Q9XUB2 whole entry): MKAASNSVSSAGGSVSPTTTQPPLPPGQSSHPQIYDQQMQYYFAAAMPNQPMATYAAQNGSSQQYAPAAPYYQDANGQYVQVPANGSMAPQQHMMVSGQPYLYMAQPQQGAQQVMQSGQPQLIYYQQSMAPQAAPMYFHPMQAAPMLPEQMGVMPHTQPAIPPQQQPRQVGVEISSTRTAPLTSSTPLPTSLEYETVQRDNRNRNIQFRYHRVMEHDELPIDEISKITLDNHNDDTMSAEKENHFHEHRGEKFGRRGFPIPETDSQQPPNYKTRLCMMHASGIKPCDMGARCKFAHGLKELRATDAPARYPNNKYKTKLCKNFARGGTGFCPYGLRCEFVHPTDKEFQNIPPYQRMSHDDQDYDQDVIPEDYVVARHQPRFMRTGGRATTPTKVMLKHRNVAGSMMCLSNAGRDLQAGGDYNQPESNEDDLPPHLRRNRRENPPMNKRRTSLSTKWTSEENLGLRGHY

Cytochrome P450 2C9 = Cytochrome P450 2C9 (Homo sapiens, UniProt P11712)
[3] = biological target: T3, Heat shock factor protein 1 (Mus musculus, UniProt P38532); experiment: inhibition of MG132-induced HSE-luciferase signal, confirmation, cell-based, NIH3T3, luminescence, dose retest (AID 2382); assay type: functional;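 further: NIH3T3 fibroblasts with HSF1-driven luciferase reporter stressed by proteasome inhibitor MG132; luminescence from HSF1-driven luciferase expression after 8 hours of MG132 stress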
T3 sequence (P38532 whole entry): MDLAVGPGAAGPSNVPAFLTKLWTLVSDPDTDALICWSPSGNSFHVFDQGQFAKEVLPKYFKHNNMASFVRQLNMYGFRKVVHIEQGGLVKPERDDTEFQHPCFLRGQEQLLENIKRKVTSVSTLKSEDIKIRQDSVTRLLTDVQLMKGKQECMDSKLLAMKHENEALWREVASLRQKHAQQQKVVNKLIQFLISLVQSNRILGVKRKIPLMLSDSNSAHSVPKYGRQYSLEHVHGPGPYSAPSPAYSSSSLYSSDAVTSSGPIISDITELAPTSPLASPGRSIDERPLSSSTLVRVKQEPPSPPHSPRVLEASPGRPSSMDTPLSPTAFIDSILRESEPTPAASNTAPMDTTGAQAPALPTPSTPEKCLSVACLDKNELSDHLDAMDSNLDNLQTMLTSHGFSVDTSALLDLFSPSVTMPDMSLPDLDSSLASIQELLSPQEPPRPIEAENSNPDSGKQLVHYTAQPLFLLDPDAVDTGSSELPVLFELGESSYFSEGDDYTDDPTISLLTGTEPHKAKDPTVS

Cytochrome P450 2C19 = Cytochrome P450 2C19 (Homo sapiens, UniProt P33261); experiment: Cytochrome panel assay with activity outcomes. Panel member name: p450-cyp2c19 Compounds with AC50 equal or less than 10 uM are considered active; assay type: functional
INS1 = experiment: beta cell apoptosis inhibitors, cytokine rescue, dose response, luminescence, retest (AID 449756); assay type: functional, cell-based; conditions: Rattus norvegicus;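 further: cell death triggered by IL-1 beta plus TNF-alpha plus IFN-gamma mixture; protective hits raise ATP signal compared with cytokine alone wells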
[4] = test system: Streptococcus sp. 'group A'; experiment: growth inhibition of control SK(-) GAS strain, dose response, counter-screen for streptokinase expression inhibitor project, luminescence, kanamycin, BacTiterGlo, confirmation (AID 1900); assay type: functional, organism-based
Streptokinase A = biological target: T4, Streptokinase A (Streptococcus pyogenes serotype M1, UniProt P10520); experiment: S. pyogenes streptokinase expression inhibitors, potency, dose response, plasminogen activation absorbance, OD405 (AID 1914); assay type: functional, Streptococcus pyogenes M1 GAS;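 further: secreted streptokinase activity via plasminogen activation per viability signal from cell pellet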
T4 sequence (P10520 whole entry): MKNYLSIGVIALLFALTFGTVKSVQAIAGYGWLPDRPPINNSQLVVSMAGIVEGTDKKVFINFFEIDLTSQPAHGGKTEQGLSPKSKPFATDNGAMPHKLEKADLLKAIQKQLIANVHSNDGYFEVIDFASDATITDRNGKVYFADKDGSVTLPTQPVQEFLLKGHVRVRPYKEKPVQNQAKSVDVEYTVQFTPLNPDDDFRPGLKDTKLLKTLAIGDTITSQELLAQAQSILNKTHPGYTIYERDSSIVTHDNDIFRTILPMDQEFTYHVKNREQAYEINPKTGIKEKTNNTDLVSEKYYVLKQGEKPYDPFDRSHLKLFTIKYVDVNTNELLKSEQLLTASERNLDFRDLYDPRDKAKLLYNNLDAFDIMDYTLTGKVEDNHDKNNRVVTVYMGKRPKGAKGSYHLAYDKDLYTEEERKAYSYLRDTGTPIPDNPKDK

Streptococcus = experiment: Group A Streptococcus viability loss, dose response, counter-screen for streptokinase expression inhibitor project, luminescence, BacTiterGlo (AID 1915); assay type: functional, organism-based;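 further: potency for reduction of bacterial viability or growth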
[5] = Luminescence Cell-Based Dose Retest to Confirm Inhibitors of Cancer Stem Cells. [Related pubchem assays (depositor defined):AID2717, AID2721]; assay type: functional; conditions: Homo sapiens
[6] = biological target: T5, Corticotropin-releasing factor receptor 2/Corticotropin-releasing factor-binding protein (Homo sapiens, UniProt P24387+Q13324); experiment: activators of CRF receptor 2 with binding protein – uHTS hits, confirmation (AID 602473); assay type: functional; conditions: read-out: EC50_Mean
T5 sequence (Q13324 whole entry): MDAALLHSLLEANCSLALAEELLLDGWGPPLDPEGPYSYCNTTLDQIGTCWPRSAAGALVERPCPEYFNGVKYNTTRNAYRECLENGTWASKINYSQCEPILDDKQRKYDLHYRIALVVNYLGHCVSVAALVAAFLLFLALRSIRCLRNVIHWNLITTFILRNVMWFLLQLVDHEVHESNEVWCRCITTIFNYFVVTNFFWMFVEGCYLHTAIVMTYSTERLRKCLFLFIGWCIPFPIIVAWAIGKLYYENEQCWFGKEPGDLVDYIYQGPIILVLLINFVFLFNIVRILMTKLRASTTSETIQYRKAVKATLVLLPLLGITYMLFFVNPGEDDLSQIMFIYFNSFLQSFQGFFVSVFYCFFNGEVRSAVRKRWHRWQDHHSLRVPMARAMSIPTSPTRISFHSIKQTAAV
T5 sequence (P24387 whole entry): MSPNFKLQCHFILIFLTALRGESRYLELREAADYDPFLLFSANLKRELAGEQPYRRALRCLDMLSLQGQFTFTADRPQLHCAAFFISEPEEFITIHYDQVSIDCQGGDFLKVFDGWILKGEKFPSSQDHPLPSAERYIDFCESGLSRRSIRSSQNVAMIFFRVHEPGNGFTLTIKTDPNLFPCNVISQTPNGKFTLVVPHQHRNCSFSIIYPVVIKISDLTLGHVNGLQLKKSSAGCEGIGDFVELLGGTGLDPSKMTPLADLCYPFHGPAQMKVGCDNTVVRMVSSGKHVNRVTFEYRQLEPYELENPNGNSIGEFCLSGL

Cytochrome P450 2C9, sequence (P11712 whole entry): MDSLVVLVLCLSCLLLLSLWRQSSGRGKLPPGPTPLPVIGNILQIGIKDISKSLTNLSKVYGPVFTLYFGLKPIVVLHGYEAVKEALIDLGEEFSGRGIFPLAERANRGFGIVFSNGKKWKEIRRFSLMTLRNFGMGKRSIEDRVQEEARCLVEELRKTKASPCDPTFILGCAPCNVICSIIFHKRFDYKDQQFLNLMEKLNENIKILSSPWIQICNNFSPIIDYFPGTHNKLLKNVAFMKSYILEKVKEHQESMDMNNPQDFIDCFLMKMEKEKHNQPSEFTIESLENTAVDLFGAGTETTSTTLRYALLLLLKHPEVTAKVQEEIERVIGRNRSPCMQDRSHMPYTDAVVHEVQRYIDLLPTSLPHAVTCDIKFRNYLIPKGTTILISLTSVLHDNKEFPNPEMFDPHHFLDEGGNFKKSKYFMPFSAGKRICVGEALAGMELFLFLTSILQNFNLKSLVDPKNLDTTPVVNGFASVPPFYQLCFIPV
Cytochrome P450 2C19, sequence (P33261 whole entry): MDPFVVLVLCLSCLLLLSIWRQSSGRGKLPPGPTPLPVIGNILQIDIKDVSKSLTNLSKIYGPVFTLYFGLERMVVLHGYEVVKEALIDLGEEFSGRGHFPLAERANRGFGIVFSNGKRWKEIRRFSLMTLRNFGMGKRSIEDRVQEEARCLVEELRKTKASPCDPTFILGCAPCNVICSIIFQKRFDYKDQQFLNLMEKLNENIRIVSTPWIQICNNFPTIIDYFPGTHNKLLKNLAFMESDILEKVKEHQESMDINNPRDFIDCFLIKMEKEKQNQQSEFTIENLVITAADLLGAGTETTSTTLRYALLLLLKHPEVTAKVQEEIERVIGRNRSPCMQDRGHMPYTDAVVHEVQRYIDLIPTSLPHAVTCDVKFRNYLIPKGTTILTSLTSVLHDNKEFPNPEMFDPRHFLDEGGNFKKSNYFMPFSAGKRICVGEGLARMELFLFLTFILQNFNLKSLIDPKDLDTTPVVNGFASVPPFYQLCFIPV

Cc1cc([N+](=O)[O-])nn1CC(=O)NNC(=S)Nc1ccc([N+](=O)[O-])cc1
EC50 [1]: 28.3 µM (active) | EC50 [2]: 5.47 µM (active)

O=C1CCC(c2ccccc2)(c2ccccc2)CC1
AC50 (Cytochrome P450 2C9): 6.31 µM (inconclusive)

O=C(/C=C\c1ccc2c(c1)OCO2)c1ccc(F)cc1
AC50 (Cytochrome P450 2C9): 1.58 µM (inconclusive)

CC(=N/O)/C(C)=N\NC(=O)c1ccccn1
EC50 [3]: > 195 µM (not active)

O=C(CSc1nnc(CNc2ccccc2)o1)N1CCCc2ccccc21
AC50 (Cytochrome P450 2C9): 15.8 µM (inconclusive)

O=C1C2CC=C(Cl)CC2C(=O)N1CCc1ccccc1 (stereo not given)
EC50 [1]: 29.4 µM (active) | EC50 [2]: 20.6 µM (active)

CCOC(=O)N1CCN(C(S)=Nc2ccc(C)cc2C)CC1
EC50 [3]: > 195 µM (not active)

CCOC(=O)C1=NOC2C3CC(C12)C1C(=O)N(CCc2ccc(OC)c(OC)c2)C(=O)C31 (stereo not given)
EC50 [3]: > 195 µM (not active)

CCN1CCN(c2nc(C)c3c(n2)CCCC3=O)CC1
AC50 (Cytochrome P450 2C19): inconclusive

COc1ccccc1NCC(=O)N/N=C/c1c(O)ccc2ccccc12
EC50 [1]: > 300 µM (not active) | EC50 [2]: > 150 µM (not active) | AC50 (INS1): 4.94 µM (active)

COC(=O)c1ccc2[nH]c3cccc(/C(=C/c4ccccc4)c4ccccc4)c3c2c1
EC50 [4]: 0.602 µM (active) | EC50 (Streptokinase A): 1.43 µM (active) | EC50 (Streptococcus): 3.93 µM (active) | AC50 (INS1): 11.2 µM (active)

Cc1cc(S(=O)(=O)N2CCN=C2c2ccccc2)c(C)cc1Cl
EC50 [3]: > 195 µM (not active)

COc1cccc(-c2nnc3sc(-c4ccc(C)cc4)nn23)c1
AC50 (Cytochrome P450 2C19; read-out: AC50): 6.31 µM (inconclusive)

O=C1CSC(c2cccnc2)N1CC1CC1 (stereo not given)
AC50 (INS1): > 260 µM (inactive)

Cc1cc(C)nc(NC(=O)COc2cc(Cl)cc(Cl)c2)n1
EC50 [3]: 71.9 µM (active)

Cc1ccc(NC(=O)CSc2nccc(=O)[nH]2)c(S(=O)(=O)N2CCOCC2)c1
EC50 [1]: > 300 µM (not active) | EC50 [2]: > 300 µM (not active)

CCOC(=O)c1ccc(NC(=O)Oc2ccccc2)cc1
EC50 [3]: > 195 µM (not active)

COc1ccc(/C=C/C(=O)NC(=S)Nc2ccccc2C(=O)NC2CCCCC2)cc1
AC50 (INS1): 13.9 µM (active)

COC(=O)c1cccc(C(=O)Nc2ccc(C)cc2)n1
AC50 (Cytochrome P450 2C9): 6.31 µM (inconclusive)

CCCOc1ccc(NC(N)=O)cc1OCCC
EC50 [3]: > 195 µM (not active)

O=C(O)CSc1nc(-c2ccccc2)nc2c1oc1ccccc12
EC50 [3]: > 195 µM (not active)

CCCSc1nsc(NC(=O)Nc2ccc(F)cc2F)n1
EC50 [4]: 17.5 µM (active) | EC50 (Streptokinase A): 54.8 µM (inconclusive) | EC50 (Streptococcus): 34.2 µM (active) | AC50 [5]: 2.95 µM (active) | AC50 (INS1): 6.57 µM (active)

CC(NC(=O)CSc1nc(=O)cc(N)n1CCc1ccccc1)c1ccccc1 (stereo not given)
AC50 (Cytochrome P450 2C19; read-out: AC50): 14.1 µM (inconclusive)

O=C(COC(=O)Cn1cnc2ccccc2c1=O)Nc1ccc2c(c1)OCO2
AC50 (INS1): > 260 µM (inactive)

CC(=O)OCC(=O)[C@@]1(O)[C@H](C)C[C@@H]2[C@H]3CCC4=CC(=O)C=C[C@]4(C)[C@]3(F)[C@@H](O)C[C@@]21C
AC50 (Cytochrome P450 2C9): 6.31 µM (inconclusive)

COC(=O)C1=CN(c2ccc(F)c(F)c2)C=C(C(=O)OC)C1c1ccc([N+](=O)[O-])cc1
EC50 [3]: > 195 µM (not active)

CC(C)(NC(=O)c1cc(Cl)c2ccccc2c1O)C(=O)O
EC50 [3]: 14.1 µM (active)

CC1(c2ccc(Cl)cc2)NC(=O)N(CC(=O)N2CCc3ccccc32)C1=O (stereo not given)
EC50 [6]: 14.1 µM (active)

O=C(O)COc1ccc(/C=N/NC(=O)c2ccccc2Br)cc1
EC50 [3]: > 195 µM (not active)

CCCCNC(=O)CCC(=O)Nc1ccc2nc(N3CCOCC3)cc(C)c2c1
AC50 (Cytochrome P450 2C9): 17.8 µM (inconclusive)

CCN(CC)C(=O)CSc1nnc(-c2cc3ccccc3cc2O)n1CC
AC50 (Cytochrome P450 2C19; read-out: AC50): 15.8 µM (inconclusive)

CN1C(=O)/C(=C/c2ccc3c(c2)OCO3)N=C1c1ccccc1
EC50 [1]: > 300 µM (not active) | EC50 [2]: 75.1 µM (inconclusive)

Cc1cc(/C=C2\SC(=O)N(C)C2=O)c(C)n1-c1cccc(C(=O)O)c1
EC50 [1]: > 300 µM (not active) | EC50 [2]: > 300 µM (not active)

O=C(NC1CCCCC1)c1ccc(COCC(F)(F)F)o1
AC50 (Cytochrome P450 2C9): 15.8 µM (inconclusive)

O=C(CC1Nc2ccccc2NC1=O)c1ccccc1 (stereo not given)
EC50 [1]: 30.6 µM (active) | EC50 [2]: 103 µM (active)

Cc1cccc(N2C(=O)CS/C2=N\NC(=O)c2ccc(Br)cc2)c1C
EC50 [3]: > 195 µM (not active)

CC(=O)Nc1ccccc1Sc1ccc2c3c(cccc13)C(=O)N(c1ccc(C)cc1)C2=O
EC50 [6]: > 53 µM (inactive)

COc1cc(/N=C/c2c(O)oc3ccccc3c2=O)c(OC)cc1Cl
EC50 [1]: > 300 µM (inconclusive) | EC50 [2]: > 300 µM (inconclusive) | EC50 [6]: > 53 µM (inactive)
